Source: publication PMC9782603 (Viruses, 2022)
Read-outs that look alike come from different tables or passages of the source.

Tests used:
[1] = test system: HCV GT 1b subgenomic reporter replicon (strain Con1); test: HCV GT 1b subgenomic replicon luciferase antiviral assay in Huh5-2 cells; type: cell-based; conditions: Hepatitis C virus, GT1B, Huh-5-2, 72 h, read-out: EC50 HCV Replicon 1b
[2] = test system: HCV GT 3a (strain S52) replicon; test: HCV GT 3a subgenomic replicon luciferase antiviral assay in Huh7.5-3a cells; type: cell-based; conditions: Hepatitis C virus, GT3A, 72 h, read-out: EC50 HCV Replicon 3a
[3] = test system: HCV GT 4a (strain ED43) replicon; test: HCV GT 4a subgenomic replicon luciferase antiviral assay in Huh7.5-4a cells; type: cell-based; conditions: Hepatitis C virus, GT4A, 72 h, read-out: EC50 HCV Replicon 4a
[4] = alamarBlue reduction cytotoxicity assay in replicon cells; type: cell-based; conditions: human, HCV Replicon 1b cells
[5] = Huh5-2, GT 1b (Con1), F-Luc, 3 days
[6] = Huh7.5-3a, GT 3a (S52), F-Luc, 3 days
[7] = Huh7.5-4a, GT 4a (ED43), F-Luc, 3 days

Row | Structure (SMILES) | EC50 [1, 5] | EC50 [2, 6] | EC50 [3, 7] | CC50 at 3 days [4] | melting point | EC50 [1] | EC50 [2] | EC50 [3]
1 | Cc1ccc(OCC(=O)Nc2ccc3c(c2)c(=O)nc(C)n3-c2cccc(C)c2)cc1 [11d, N-(2-Methyl-4-oxo-1-(m-tolyl)-1,4-dihydroquinazolin-6-yl)-2-(p-tolyloxy)acetamide] | > 1 µM | > 10 µM | > 10 µM | 22.7 ± 2.23 µM | 270 °C |  |  | 
2 | Cc1nc(=O)c2cc(NC(=O)CCl)ccc2n1-c1ccccc1 [10a, 2-Chloro-N-(2-methyl-4-oxo-1-phenyl-1,4-dihydroquinazolin-6-yl)acetamide] | > 10 µM | > 10 µM | > 10 µM | 87.47 ± 0.24 µM | 285 °C |  |  | 
3 | Cc1cccc(-n2c(C)nc(=O)c3cc(N)ccc32)c1 [9b, 6-Amino-2-methyl-1-(m-tolyl)quinazolin-4(1H)-one] | > 10 µM | > 10 µM | > 10 µM | > 200 µM | 270 to 273 °C |  |  | 
4 | Cc1cc(OCC(=O)Nc2ccc3c(c2)c(=O)ncn3-c2ccccc2)ccc1Cl [7c, 2-(4-Chloro-3-methylphenoxy)-N-(4-oxo-1-phenyl-1,4-dihydroquinazolin-6-yl)acetamide] | > 10 µM | > 10 µM | > 10 µM | 75.2 ± 9.24 µM | 255 °C |  |  | 
5 | Cc1cccc(-n2c(C)nc(=O)c3cc(NC(=O)COc4ccc(Cl)c(C)c4)ccc32)c1 [11f, 2-(4-Chloro-3-methylphenoxy)-N-(2-methyl-4-oxo-1-(m-tolyl)-1,4-dihydroquinazolin-6-yl)acetamide] | > 1 µM | > 10 µM | > 10 µM | 27.4 ± 2.71 µM | 290 °C |  |  | 
6 | Cc1cccc(-n2cnc(=O)c3cc(NC(=O)COc4ccc(Cl)c(C)c4)ccc32)c1 [7f, 2-(4-Chloro-3-methylphenoxy)-N-(4-oxo-1-(m-tolyl)-1,4-dihydroquinazolin-6-yl)acetamide] | > 10 µM | > 10 µM | > 10 µM | 105 ± 10.3 µM | 269 °C |  |  | 
7 | Cc1cccc(-n2c(C)nc(=O)c3cc(NC(=O)CCl)ccc32)c1 [10b, 2-Chloro-N-(2-methyl-4-oxo-1-(m-tolyl)-1,4-dihydroquinazolin-6-yl)acetamide] | > 10 µM | > 10 µM | > 10 µM | 177.2 ± 0.03 µM | 280 °C |  |  | 
8 | O=C(CCl)Nc1ccc2c(c1)c(=O)ncn2-c1ccccc1 [6a, 2-Chloro-N-(4-oxo-1-phenyl-1,4-dihydroquinazolin-6-yl)acetamide] | > 10 µM | > 10 µM | > 10 µM | 104.2 ± 0.03 µM | < 300 °C |  |  | 
9 | O=c1ncn(-c2ccccc2)c2ccc([N+](=O)[O-])cc12 [4a, 6-Nitro-1-phenylquinazolin-4(1H)-one] | > 10 µM | > 10 µM | > 10 µM | > 200 µM | 246 to 248 °C |  |  | 
10 | Cc1cccc(-n2cnc(=O)c3cc(N)ccc32)c1 [5b, 6-Amino-1-(m-tolyl)quinazolin-4(1H)-one] | > 10 µM | > 10 µM | > 10 µM | > 200 µM | 288 to 290 °C |  |  | 
11 | Cc1cccc(-n2c(C)nc(=O)c3cc([N+](=O)[O-])ccc32)c1 [8b, 2-Methyl-6-nitro-1-(m-tolyl)quinazolin-4(1H)-one] |  | > 10 µM | > 10 µM | 151 ± 5.41 µM | 258 to 260 °C | > 10 µM |  | 
12 | Cc1nc(=O)c2cc([N+](=O)[O-])ccc2n1-c1ccccc1 [8a, 2-Methyl-6-nitro-1-phenylquinazolin-4(1H)-one] |  | > 10 µM | > 10 µM | > 200 µM | 260 to 262 °C | > 10 µM |  | 
13 | Cc1ccc(OCC(=O)Nc2ccc3c(c2)c(=O)ncn3-c2cccc(C)c2)cc1 [7d, N-(4-oxo-1-(m-tolyl)-1,4-dihydroquinazolin-6-yl)-2-(p-tolyloxy)acetamide] | > 10 µM | > 10 µM | > 10 µM | 50.1 ± 1.77 µM | 206 °C |  |  | 
14 | Cc1ccc(OCC(=O)Nc2ccc3c(c2)c(=O)ncn3-c2ccccc2)cc1 [7a, N-(4-Oxo-1-phenyl-1,4-dihydroquinazolin-6-yl)-2-(p-tolyloxy)acetamide] | > 10 µM | > 10 µM | > 10 µM | 84.7 ± 14 µM | 220 °C |  |  | 
15 | Cc1cccc(-n2cnc(=O)c3cc(NC(=O)COc4ccc(Cl)cc4)ccc32)c1 [7e, 2-(4-Chlorophenoxy)-N-(4-oxo-1-(m-tolyl)-1,4-dihydroquinazolin-6-yl)acetamide] | > 10 µM | > 10 µM | > 10 µM | 47.6 ± 5.56 µM | 255 °C |  |  | 
16 | O=C(O)c1cc([N+](=O)[O-])ccc1Nc1ccccc1 [1a, 5-nitro-2-(phenylamino)-benzoic acid] | > 10 µM | > 10 µM | > 10 µM | > 200 µM |  |  |  | 
17 | O=C(COc1ccc(Cl)cc1)Nc1ccc2c(c1)c(=O)ncn2-c1ccccc1 [7b, 2-(4-Chlorophenoxy)-N-(4-oxo-1-phenyl-1,4-dihydroquinazolin-6-yl)acetamide] | > 10 µM | > 10 µM | > 10 µM | 154 ± 3.71 µM | 262 °C |  |  | 
18 | Cc1cccc(Nc2ccc([N+](=O)[O-])cc2C(N)=O)c1 [3b, 5-Nitro-2-(m-tolylamino) benzamide] | > 10 µM | > 10 µM | > 10 µM | 161.3 ± 0.07 µM | 188 to 190 °C |  |  | 
19 | COC(=O)N[C@H](C(=O)N1CCC[C@H]1c1nc(-c2ccc(-c3ccc(-c4c[nH]c([C@@H]5CCCN5C(=O)[C@@H](NC(=O)OC)C(C)C)n4)cc3)cc2)c[nH]1)C(C)C [Daclatasvir, reference compound] | 2.66e-05 µM |  |  | 17.7 µM |  |  | 2.12e-05 µM | 0.008 ± 0.001 µM
20 | NC(=O)c1cc([N+](=O)[O-])ccc1Nc1ccccc1 [3a, 5-nitro-2-(phenylamino)benzamide] | > 10 µM | > 10 µM | > 10 µM | 70.69 ± 0.04 µM |  |  |  | 
21 | Cc1cccc(-n2cnc(=O)c3cc(NC(=O)CCl)ccc32)c1 [6b, 2-Chloro-N-(4-oxo-1-(m-tolyl)-1,4-dihydroquinazolin-6-yl)acetamide] | > 10 µM | > 10 µM | > 10 µM | 143 ± 14.2 µM | 290 °C |  |  | 
22 | Cc1cccc(Nc2ccc([N+](=O)[O-])cc2C(=O)O)c1 [1b, 5-nitro-2-(m-tolylamino)benzoic acid] | > 10 µM | > 10 µM | > 10 µM | > 200 µM |  |  |  | 
23 | Nc1ccc2c(c1)c(=O)ncn2-c1ccccc1 [5a, 6-Amino-1-phenylquinazolin-4(1H)-one] | 9.84 ± 0.57 µM | > 10 µM | > 10 µM | > 200 µM | 293 to 295 °C |  |  | 
24 | Cc1cccc(-n2cnc(=O)c3cc([N+](=O)[O-])ccc32)c1 [4b, 6-Nitro-1-(m-tolyl)quinazolin-4(1H)-one] | > 10 µM | > 10 µM | > 10 µM | 64.9 ± 0.03 µM | 185 °C |  |  | 
25 | Cc1nc(=O)c2cc(N)ccc2n1-c1ccccc1 [9a, 6-Amino-2-methyl-1-phenylquinazolin-4(1H)-one] |  | > 10 µM | > 10 µM | > 200 µM | 268 to 270 °C | > 10 µM |  | 
26 | Cc1cc(OCC(=O)Nc2ccc3c(c2)c(=O)nc(C)n3-c2ccccc2)ccc1Cl [11c, 2-(4-Chloro-3-methylphenoxy)-N-(2-methyl-4-oxo-1-phenyl-1,4-dihydroquinazolin-6-yl)acetamide] | > 10 µM | > 10 µM | > 10 µM | > 200 µM | 271 °C |  |  | 
